Laboratory results published in article PMC12332667, “Role of Structural Modifications in Peptidomimetic Compounds as Potential Antimicrobial Agents against Staphylococcus aureus and Streptococcus pyogenes: Balancing Bioavailability, Safety, and Antimicrobial Activity” (ACS Omega, 2025).
Converted amounts (≈) assume the structure as drawn. Non-standard residues stand in square brackets, D forms with d. Residues, ends and D or L forms follow the SMILES beside them. *: point of attachment. NHPhenethyl = c1ccc(CCN*)cc1; β3hV = CC(C)[C@H](N)CC(=O)O; Cbz = O=C(OCc1ccccc1)*

What was measured:
S. cohnii c.i. = assay: MIC/MBC broth microdilution, S. cohnii; type: cell-based, Staphylococcus cohnii
Procedure: (§1) S. aureus (ATCC 29213),S. pyogenes (ATCC 19615),Streptococcus agalactiae (ATCC 27956),Escherichia coli (ATCC 25922),Proteus vulgaris (ATCC 6896),K. pneumoniae (ATCC 700603) andP. aeruginosa (ATCC 10145) reference strains, as well asStaphylococcus cohnii, Enterococcus faecalis, Staphylococcus schleiferi, Staphylococcus intermedius and Streptococcus mutans clinical isolates, were used to test the antibacterial activity of the peptidomimetics. Bacteria were aerobically cultured for 18 h at 37 °C in plates with sterilized brain heart infusion (BHI) broth (Sigma-Aldrich, USA) media mixed with bacteriological agar (Sigma-Aldrich, USA) using the streak plate method. After 18 h, BHI broth was inoculated to 0.5 on the McFarland scale and diluted to approximately 10^5 CFU/mL. To achieve a final stock concentration of 1024 μg/mL, the peptidomimetics were dissolved in sterile water, and 5–10% of absolute ethanol or dimethyl sulfoxide (DMSO) was added. The antibacterial activities were determined by using the standard broth microdilution method of the National Committee for Clinical Laboratory Standards. The process involved adding serially diluted peptidomimetics to consecutive wells of a 96-well microtiter plate (Brand, Germany) holding media with microorganisms. The inoculated plates treated with peptides were then placed in an incubator at 37 °C for 18 h. The MIC value was determined as the lowest concentration of peptidomimetic at which there was no obvious growth (equal or more than 90% of the untreated sample). […] The lowest concentration yielding growth in no more than 3 colonies, corresponding to at least a 99.9% kill rate, was taken as MBC. Each biological replicate included control wells with the addition of water, DMSO, and ethanol as respective solvent controls. All experiments were conducted with consistent adherence to growth and sterility controls and were performed at least in technical triplicate with three biological repeats.

S. schleiferi c.i. = assay: MIC/MBC broth microdilution, S. schleiferi; type: cell-based, Staphylococcus schleiferi
Procedure: as §1

E. faecalis c.i. = assay: MIC/MBC broth microdilution, E. faecalis; type: cell-based, Enterococcus faecalis
Procedure: as §1

E. coli ATCC 25922 = assay: MIC/MBC broth microdilution, E. coli; type: cell-based, Escherichia coli
Procedure: as §1

[1] = tested on: human dermal fibroblast cell line (46BR.1N); assay: XTT cell proliferation assay, fibroblasts; type: cell-based; conditions: for effect on proliferation, in words: XTT, 48 and 72 h, 0.01–150 μg/mL
Procedure: (§2) In our study, we used two distinct cell types: immortalized human HaCaT keratinocytes (DKFZ, Heidelberg, Germany) and a human dermal fibroblast cell line (46BR.1N). […] Cultures were maintained in a humidified atmosphere with 5% CO2 at 37 °C in 25 cm^2 culture flasks with the medium replenished every 2 days. The condition of the cells was monitored using optical microscopy. […] After 24 h of incubation, the medium was replaced with serum-free HG-DMEM containing appropriate concentrations of peptidomimetics. All solutions used in the experiments were prepared with double-distilled water or with the addition of ethanol under sterile conditions to ensure compatibility with the conditions of the bacteriological assay. For 72 h of incubation, half of the medium was replaced with fresh medium after 48 h, and cells were stimulated with peptides for a second time. The XTT cell proliferation assay was then performed according to the manufacturer’s instructions (Roche, Switzerland). Cells were treated with the peptides for either 48 or 72 h, followed by the addition of XTT reagent, and the plates were then incubated at 37 °C in a 5% CO2 environment for 4 h. Plate readings were taken using a standard plate reader at a wavelength of 490 nm (OD = 490 nm). […] Statistical significance was determined with a Mann–Whitney U test with statistical significance p ≤ 0.05. Analysis was performed with Statistica software, and graphs were prepared in GraphPad Prism.

[2] = tested on: immortalized human HaCaT keratinocytes; assay: XTT cell proliferation assay, keratinocytes; type: cell-based; conditions: for effect on proliferation, in words: XTT, 48 and 72 h, 0.01–150 μg/mL
Procedure: as §2

[3] = tested on: immortalized human keratinocytes (HaCaT); assay: LDH cytotoxicity test, keratinocytes; type: cell-based; conditions: 48 h, 50, 100 and 150 μg/mL, vs 1% Triton X-100
Procedure: (§3) In our study, we used two distinct cell types: immortalized human HaCaT keratinocytes (DKFZ, Heidelberg, Germany) and a human dermal fibroblast cell line (46BR.1N). […] Cultures were maintained in a humidified atmosphere with 5% CO2 at 37 °C in 25 cm^2 culture flasks with the medium replenished every 2 days. The condition of the cells was monitored using optical microscopy.
(§4) Cell death in immortalized human keratinocytes (HaCaT) and fibroblasts (46BR.1N) was measured by quantifying the lactate dehydrogenase (LDH) activity using a commercial kit (Roche, Switzerland). Cells were seeded in 96-well plates at a density of 5000 cells per well in DMEM high glucose medium supplemented with 10% FBS. After 24 h of incubation, the medium was replaced with serum-free medium containing various concentrations of peptidomimetics (50, 100, and 150 μg/mL). After 48 h, supernatants were collected for LDH analysis. Plate readings were taken spectrophotometrically using a 450 nm wavelength. Cell death measurements were normalized to an untreated control (0%), with 1% Triton X-100 detergent used as a positive control to induce maximum LDH release, indicating maximal cytotoxicity. Statistical significance was determined with a Mann–Whitney U test with a statistical significance p ≤ 0.05. Analysis was performed with Statistica software (Krakow, Poland) and graphs were prepared in GraphPad Prism (Boston, USA).

[4] = tested on: K. pneumoniae ATCC 700603; assay: MIC/MBC broth microdilution, K. pneumoniae; type: cell-based
Procedure: as §1

P. aeruginosa ATCC 10145 = assay: MIC/MBC broth microdilution, P. aeruginosa; type: cell-based
Procedure: as §1

P. vulgaris ATCC 6896 = assay: MIC/MBC broth microdilution, P. vulgaris; type: cell-based, Proteus vulgaris
Procedure: as §1

fibroblasts (46BR.1N) = assay: LDH cytotoxicity test, fibroblasts; type: cell-based; conditions: 48 h, 50, 100 and 150 μg/mL, vs 1% Triton X-100
Procedure: as §3, §4

S. mutans c.i. = assay: MIC/MBC broth microdilution, S. mutans; type: cell-based, Streptococcus mutans
Procedure: as §1

S. pyogenes ATCC 19615 = assay: MIC/MBC broth microdilution, S. pyogenes; type: cell-based, Streptococcus pyogenes; conditions: S. pyogenes
Procedure: as §1

S. aureus ATCC 43300 = assay: MIC/MBC broth microdilution, S. aureus; type: cell-based, Staphylococcus aureus; conditions: S. aureus
S. agalactiae ATCC 27956 = assay: MIC/MBC broth microdilution, S. agalactiae; type: cell-based, Streptococcus agalactiae; conditions: S. agalactiae, water additive EtOH
Procedure: as §1

[5] = up to 150 μg/mL, A-193 and A-179 after 48 h

| SMILES | MIC (S. schleiferi c.i.; water additive EtOH) [µg/mL] | MIC (E. faecalis c.i.; water additive DMSO) [µg/mL] | MBC (E. faecalis c.i.; water additive EtOH) [µg/mL] | MIC (E. faecalis c.i.; water additive EtOH) [µg/mL] | MIC (E. coli ATCC 25922; water additive DMSO) [µg/mL] | MIC (E. coli ATCC 25922; water additive EtOH) [µg/mL] | effect on proliferation, in words [1] | effect on proliferation, in words [2] | cytotoxicity (LDH) [3] | MIC ([4]; water additive DMSO) [µg/mL] | MIC ([4]; water additive EtOH) [µg/mL] | MIC (P. aeruginosa ATCC 10145; water additive DMSO) [µg/mL] | MIC (P. aeruginosa ATCC 10145; water additive EtOH) [µg/mL] | MIC (P. vulgaris ATCC 6896; water additive DMSO) [µg/mL] | MIC (P. vulgaris ATCC 6896; water additive EtOH) [µg/mL] | MIC (S. mutans c.i.; water additive EtOH) [µg/mL] | MBC (S. pyogenes ATCC 19615; H2O) [µg/mL] | MBC (S. pyogenes ATCC 19615; water additive EtOH) [µg/mL] | MIC (S. aureus ATCC 43300; water additive DMSO) [µg/mL] | also measured |
| --- | --- | --- | --- | --- | --- | --- | --- | --- | --- | --- | --- | --- | --- | --- | --- | --- | --- | --- | --- | --- |
| CC(C)C[C@H](NC(=O)[C@H](CCCNC(=N)N)NC(=O)OCc1ccccc1)C(=O)N[C@H](CC(=O)NCCc1ccccc1)C(C)C [Compound A-152] (Cbz-Arg-Leu-[β3hV]-NHPhenethyl) | > 512 | 512 (≈ 803 µM) | 512 (≈ 803 µM) | 512 (≈ 803 µM) | > 512 | > 512 | pro-proliferating effect at lower concentrations followed by an antiproliferative effect at higher concentrations | pro-proliferating effect at lower concentrations followed by an antiproliferative effect at higher concentrations | ≤ 50% | > 512 | > 512 | > 512 | > 512 | > 512 | > 512 | > 512 | 256 (≈ 401 µM) | 126 (≈ 198 µM) | 512 (≈ 803 µM) | MBC (S. cohnii c.i.; water additive DMSO): 512 µg/mL (≈ 803 µM); MBC (S. cohnii c.i.; water additive EtOH): 512 µg/mL (≈ 803 µM); MIC (S. schleiferi c.i.; water additive DMSO): > 512 µg/mL; MBC (E. faecalis c.i.; water additive DMSO): > 512 µg/mL; cytotoxicity (LDH) (fibroblasts (46BR.1N)): ≤ 50%; MIC (S. mutans c.i.; water additive DMSO): > 512 µg/mL; MBC (S. pyogenes ATCC 19615; water additive DMSO): 256 µg/mL (≈ 401 µM); MBC (S. aureus ATCC 43300; H2O): 256 µg/mL (≈ 401 µM); MBC (S. aureus ATCC 43300; water additive DMSO): 512 µg/mL (≈ 803 µM); MBC (S. agalactiae ATCC 27956): 256 µg/mL (≈ 401 µM) |
| CC(C)[C@@H](CNC(=O)C(=Cc1ccccc1)c1ccccc1)NC(=O)[C@H](Cc1c[nH]cn1)NC(=O)[C@H](CCCNC(=N)N)NC(=O)OCc1ccccc1 [Compound A-176] | 16 (≈ 21.7 µM) | > 512 | 512 (≈ 696 µM) | 256 (≈ 348 µM) | > 512 | 512 (≈ 696 µM) | negative impact | negative impact | exceeding 50% | > 512 | > 512 | 256 (≈ 348 µM) | 256 (≈ 348 µM) | > 512 | > 512 | 32 (≈ 43.5 µM) | 32 (≈ 43.5 µM) | 32 (≈ 43.5 µM) | 32 (≈ 43.5 µM) | MIC (S. schleiferi c.i.; H2O): 16 µg/mL (≈ 21.7 µM); MBC (S. schleiferi c.i.; water additive EtOH): 32 µg/mL (≈ 43.5 µM); MBC (E. faecalis c.i.; H2O): 512 µg/mL (≈ 696 µM); MIC (E. faecalis c.i.; H2O): 512 µg/mL (≈ 696 µM); MBC (E. coli ATCC 25922; H2O): 256 µg/mL (≈ 348 µM); MIC (E. coli ATCC 25922; H2O): 256 µg/mL (≈ 348 µM); antiproliferative effect (decrease vs control) [1, 5]: up to 50%; antiproliferative effect (decrease vs control) [2, 5]: up to 50%; MIC ([4]; H2O): > 512 µg/mL; MIC (P. aeruginosa ATCC 10145; H2O): 256 µg/mL (≈ 348 µM); MBC (P. aeruginosa ATCC 10145; water additive DMSO): 256 µg/mL (≈ 348 µM); MBC (P. aeruginosa ATCC 10145; water additive EtOH): 256 µg/mL (≈ 348 µM); MIC (P. vulgaris ATCC 6896; H2O): > 512 µg/mL; MIC (S. mutans c.i.; H2O): 32 µg/mL (≈ 43.5 µM); MIC (S. pyogenes ATCC 19615; H2O): 16 µg/mL (≈ 21.7 µM); MIC (S. pyogenes ATCC 19615; water additive DMSO): 16 µg/mL (≈ 21.7 µM); MIC (S. pyogenes ATCC 19615; water additive EtOH): 16 µg/mL (≈ 21.7 µM); MIC (S. aureus ATCC 43300; H2O): 32 µg/mL (≈ 43.5 µM); MIC (S. aureus ATCC 43300; water additive EtOH): 32 µg/mL (≈ 43.5 µM) |
